According to patent US4347176A, “Compounds and methods of making same” (Burroughs Wellcome Co., priority 1980, dated 1982):

How the values were obtained:
[1] = tested on: anti-compound 2 sera, and anti-compound 3 sera; test: RIA of bupropion using 125I-labeled competitors with anti-compound 2 sera and anti-compound 3 sera: sensitivity; type: binding, rabbit (preferred host animal); settings: with either anti-compound 2 or anti-compound 3 sera; standard curves, FIG. 2
Method: (§1) Samples of six standard solutions of bupropion in blank plasma having concentrations of 0.39 to 50 ng/ml) are pipetted (0.1 ml each) in duplicate into 12×75 mm plastic tubes. Duplicate non-specific binding (no antibody) and maximum binding tubes (no unlabeled bupropion) receive 0.1 ml blank plasma. Spiked plasma controls at several concentrations of (e.g., 1.0, 10.0, and 100 ng/ml) and plasma samples for assay (diluted into the standard range with blank plasma if necessary) are assayed in duplicate. After being placed in an ice bath, all tubes receive (in order) 0.2 ml ^3 H bupropion (416 pg. containing approximately 10^4 cpm) and 0.7 ml anti-bupropion serum (raised to a ring-functionalized immunogen according to the present invention) (at pre-determined dilutions such that approximately 40% of the ^3 H bupropion added is bound), both in assay buffer (0.05 M phosphate-bufferedisotonic saline, containing 0.01 M EDTA and 0.1% gelatin, pH 7.0). Non-specific binding tubes receive 0.7 ml assay buffer.) Following incubation either at 25° C. for 2 hours or overnight at 4° C., bound and free ^3 H bupropion are separated by incubation for 10 min at 0° C. with 0.5 ml ice-cold dextran-coated charcoal solution (0.25% dextran, 5 mg/ml charcoal, in assay buffer) followed by centrifugation for 10 minutes at 4° C. […] The supernatants, containing antibody-bound ^3 H bupropion are carefully decanted into liquid scintillation cocktail for quantitation of ^3 H. After counts (minus average nonspecific binding cpm) are expressed as percentages of average maximum binding cpm, bupropion concentrations in plasma samples and spiked controls are read from a standard curve (log concentration vs percent average maximum binding).
RIA's have been run according to the method of Example X utilizing ^125 I labeled bupropion competitors of the present invention in conjunction with antisera obtained following immunization with immunogens of the present invention. […] Following the ethanol precipitation of antibody-bound ^125 I-bupropion competitor at equilibrium, ^125 I in the protein pellets was quantified.

[2] = tested on: antisera raised by presenting a suitable bupropion variant-carrier material conjugate to the immune system of host animals; test: competition of bupropion with radiolabeled competitor for binding to antisera; design: species or system rabbit
Method: as §1, with “7.0).” for “7.0). Non-specific binding tubes receive 0.7 ml assay buffer.) Following incubation either at 25° C. for 2 hours or overnight at 4° C., bound and free ^3 H bupropion are separated by incubation for 10 min at 0° C. with 0.5 ml ice-cold dextran-coated charcoal solution (0.25% dextran, 5 mg/ml charcoal, in assay buffer) followed by centrifugation for 10 minutes at 4° C.”

anti-compound 1 sera = test: RIA of bupropion using 125I-labeled competitor with anti-compound 1 sera: sensitivity; type: binding, rabbit (preferred host animal); settings: in conjunction with anti-compound 1 sera; compared with the other iodinated competitors, FIG. 2
Method: as §1, with “7.0).” for “7.0). Non-specific binding tubes receive 0.7 ml assay buffer.) Following incubation either at 25° C. for 2 hours or overnight at 4° C., bound and free ^3 H bupropion are separated by incubation for 10 min at 0° C. with 0.5 ml ice-cold dextran-coated charcoal solution (0.25% dextran, 5 mg/ml charcoal, in assay buffer) followed by centrifugation for 10 minutes at 4° C.”, “binding). […]” for “binding).”

| SMILES | RIA sensitivity relative to the compound 10 (3H bupropion) assay system [1] | further results |
| --- | --- | --- |
| CC(NC(C)(C)C)C(=O)c1ccc(OCC(=O)NCCc2ccc(O)c([125I])c2)c(Cl)c1 (stereo not drawn) [Compound 7, α-t-Butylamino-3-chloro-4-carbomethoxypropiophenone-^125 I-tyramine amide] | sensitivity approximately equal |  |
| CC(NC(C)(C)C)C(=O)c1cccc(Cl)c1 (racemic) [bupropion, (±)-2-tert-butylamino-3'-chloropropiophenone] |  | competition with radiolabeled bupropion or competitor for binding to antisera [2]: successfully compete |
| CC(NC(C)(C)C)C(=O)c1ccc(O)c([125I])c1 (stereo not drawn) [Compound 9, ^125 I-α-t-Butylamino-3-iodo-4-hydroxypropiophenone] | approximately ten times more sensitive |  |
| CC(NC(C)(C)C)C(=O)c1ccc(CCCOC(=O)CCC(=O)NCCc2ccc(O)c([125I])c2)c(Cl)c1 (stereo not drawn) [Compound 8, α-t-butylamino-3-chloro-4-γ-hydroxypropylpropiophenonehemisuccinate-^125 I-tyramine amide] | sensitivity approximately equal |  |
| CC(NC(C)(C)C)C(=NOCC(=O)NCCc1ccc(O)c([125I])c1)c1cccc(Cl)c1 (stereo not drawn) [Compound 6, α-t-Butylamino-3-chloropropiophenone-carboxymethyloxime-^125 I-tyramine amide] |  | RIA sensitivity (anti-compound 1 sera): least sensitive RIA |
